Tested on: plaque
Details: in chewing gum

## CC(=O)[O-].CC(=O)[O-].[Zn+2] [zinc acetate]
  effect on plaque in hard-to-reach places (in words): worked in the “hard-to-reach” places with high efficiency
